Experimental data published in ChEMBL document CHEMBL3885861, “Open TG-GATES”.
Values joined by “and” are separate entries in the source; they are usually repeats but may differ in a detail not shown here. Equal entries are not always repeated.

Species on record: Rattus norvegicus
Assay: Open TG-GATES - Regimen: Single
Format: toxicity, organism-based, Sprague-Dawley
Design: regimen Single, gender Male, age 6 weeks
Settings: in vivo, po, route gavage; for ALT / AST / BUN / CRE / Ca / Cl / GLC / IP / K / LDH / Na / PL / RALB / TC / TG / TP / A/G / ALP / DBIL / TBIL / gamma-GTP: tissue Plasma; for APTT / Bas / Eos / Fbg / Hb / Ht / Lym / MCH / MCHC / MCV / Mono / Neu / PT / Plat / RBC / Ret / WBC: tissue Blood; for KIDNEY_L / KIDNEY_R / KIDNEY_TOTAL: tissue Kidney; for LIVER: tissue Liver
[1] = 0 mg/kg, 24 h, dose level Control

SMILES: O=C1CN(/N=C/c2ccc([N+](=O)[O-])o2)C(=O)N1 [NITROFURANTOIN]
- ALT [1]: 40.2 IU/L and 32.2 IU/L
- AST [1]: 67 IU/L and 61.8 IU/L
- BUN [1]: 15.6 mg/dL and 16 mg/dL
- CRE [1]: 0.4 mg/dL
- Ca [1]: 10.9 mg/dL and 11.3 mg/dL
- Cl [1]: 101.4 meq/L and 105.8 meq/L
- GLC [1]: 211.2 mg/dL and 198.2 mg/dL
- IP [1]: 7.6 mg/dL and 9.2 mg/dL
- K [1]: 4 meq/L and 4.4 meq/L
- LDH [1]: 161.6 IU/L and 69.4 IU/L
- Na [1]: 140 meq/L and 141 meq/L
- PL [1]: 149.8 mg/dL and 148.2 mg/dL
- RALB [1]: 3.2 g/dL and 3.9 g/dL
- TC [1]: 76.4 mg/dL and 80.6 mg/dL
- TG [1]: 110 mg/dL and 123 mg/dL
- TP [1]: 5.6 g/dL and 5.5 g/dL
- TERMINAL_BW (10 mg/kg, 3 h, dose level Low): 221.7 g
- APTT (10 mg/kg, 3 h, dose level Low): 20.2 s
- Bas (10 mg/kg, 3 h, dose level Low): 0%
- Eos (10 mg/kg, 3 h, dose level Low): 1.2%
- Fbg (10 mg/kg, 3 h, dose level Low): 216.6 mg/dL
- Hb (10 mg/kg, 3 h, dose level Low): 13.5 g/dL
- Ht (10 mg/kg, 3 h, dose level Low): 38.5%
- Lym (10 mg/kg, 3 h, dose level Low): 77%
- MCH (10 mg/kg, 3 h, dose level Low): 21.5 pg
- MCHC (10 mg/kg, 3 h, dose level Low): 35.1%
- MCV (10 mg/kg, 3 h, dose level Low): 61.3 fL
- Mono (10 mg/kg, 3 h, dose level Low): 3%
- Neu (10 mg/kg, 3 h, dose level Low): 17.4%
- PT (10 mg/kg, 3 h, dose level Low): 12.5 s
- Plat (10 mg/kg, 3 h, dose level Low): 112.9 x10_4/uL
- RBC (10 mg/kg, 3 h, dose level Low): 628.8 x10_4/ul
- Ret (10 mg/kg, 3 h, dose level Low): 7.4%
- WBC (10 mg/kg, 3 h, dose level Low): 88.6 x10_2/uL
- KIDNEY_L (10 mg/kg, 3 h, dose level Low): 1 g
- KIDNEY_R (10 mg/kg, 3 h, dose level Low): 1 g
- KIDNEY_TOTAL (10 mg/kg, 3 h, dose level Low): 2 g
- LIVER (10 mg/kg, 3 h, dose level Low): 10.3 g
- A/G (10 mg/kg, 3 h, dose level Low): 1.6
- ALP (10 mg/kg, 3 h, dose level Low): 999 IU/L
- ALT (10 mg/kg, 3 h, dose level Low): 42.2 IU/L
- AST (10 mg/kg, 3 h, dose level Low): 69.6 IU/L
- BUN (10 mg/kg, 3 h, dose level Low): 12.2 mg/dL
- CRE (10 mg/kg, 3 h, dose level Low): 0.3 mg/dL
- Ca (10 mg/kg, 3 h, dose level Low): 10.8 mg/dL
- Cl (10 mg/kg, 3 h, dose level Low): 101.8 meq/L
- DBIL (10 mg/kg, 3 h, dose level Low): 0.076 mg/dL
- GLC (10 mg/kg, 3 h, dose level Low): 194.8 mg/dL
- IP (10 mg/kg, 3 h, dose level Low): 8.7 mg/dL
- K (10 mg/kg, 3 h, dose level Low): 3.9 meq/L
- LDH (10 mg/kg, 3 h, dose level Low): 198.6 IU/L
- Na (10 mg/kg, 3 h, dose level Low): 141 meq/L
- PL (10 mg/kg, 3 h, dose level Low): 141.2 mg/dL
- RALB (10 mg/kg, 3 h, dose level Low): 3.3 g/dL
- TBIL (10 mg/kg, 3 h, dose level Low): 0.1 mg/dL
- TC (10 mg/kg, 3 h, dose level Low): 81 mg/dL
- TG (10 mg/kg, 3 h, dose level Low): 67.4 mg/dL
- TP (10 mg/kg, 3 h, dose level Low): 5.4 g/dL
- gamma-GTP (10 mg/kg, 3 h, dose level Low): 0.8 IU/L
- TERMINAL_BW (10 mg/kg, 6 h, dose level Low): 217.9 g
- APTT (10 mg/kg, 6 h, dose level Low): 19.4 s
- Bas (10 mg/kg, 6 h, dose level Low): 0%
- Eos (10 mg/kg, 6 h, dose level Low): 1%
- Fbg (10 mg/kg, 6 h, dose level Low): 222.2 mg/dL
- Hb (10 mg/kg, 6 h, dose level Low): 13.6 g/dL
- Ht (10 mg/kg, 6 h, dose level Low): 38.4%
- Lym (10 mg/kg, 6 h, dose level Low): 76.2%
- MCH (10 mg/kg, 6 h, dose level Low): 21.6 pg
- MCHC (10 mg/kg, 6 h, dose level Low): 35.3%
- MCV (10 mg/kg, 6 h, dose level Low): 61 fL
- Mono (10 mg/kg, 6 h, dose level Low): 2.8%
- Neu (10 mg/kg, 6 h, dose level Low): 18.4%
- PT (10 mg/kg, 6 h, dose level Low): 12.7 s
- Plat (10 mg/kg, 6 h, dose level Low): 121.4 x10_4/uL
- RBC (10 mg/kg, 6 h, dose level Low): 629.8 x10_4/ul
- Ret (10 mg/kg, 6 h, dose level Low): 7.6%
- WBC (10 mg/kg, 6 h, dose level Low): 96.2 x10_2/uL
- KIDNEY_L (10 mg/kg, 6 h, dose level Low): 1 g
- KIDNEY_R (10 mg/kg, 6 h, dose level Low): 1 g
- KIDNEY_TOTAL (10 mg/kg, 6 h, dose level Low): 2 g
- LIVER (10 mg/kg, 6 h, dose level Low): 9.9 g
- A/G (10 mg/kg, 6 h, dose level Low): 1.7
- ALP (10 mg/kg, 6 h, dose level Low): 930.6 IU/L
- ALT (10 mg/kg, 6 h, dose level Low): 32 IU/L
- AST (10 mg/kg, 6 h, dose level Low): 61 IU/L
- BUN (10 mg/kg, 6 h, dose level Low): 11.4 mg/dL
- CRE (10 mg/kg, 6 h, dose level Low): 0.4 mg/dL
- Ca (10 mg/kg, 6 h, dose level Low): 10.7 mg/dL
- Cl (10 mg/kg, 6 h, dose level Low): 102.8 meq/L
- DBIL (10 mg/kg, 6 h, dose level Low): 0.088 mg/dL
- GLC (10 mg/kg, 6 h, dose level Low): 194.2 mg/dL
- IP (10 mg/kg, 6 h, dose level Low): 8.8 mg/dL
- K (10 mg/kg, 6 h, dose level Low): 4.2 meq/L
- LDH (10 mg/kg, 6 h, dose level Low): 175.8 IU/L
- Na (10 mg/kg, 6 h, dose level Low): 140.6 meq/L
- PL (10 mg/kg, 6 h, dose level Low): 140.8 mg/dL
- RALB (10 mg/kg, 6 h, dose level Low): 3.5 g/dL
- TBIL (10 mg/kg, 6 h, dose level Low): 0.1 mg/dL
- TC (10 mg/kg, 6 h, dose level Low): 75 mg/dL
- TG (10 mg/kg, 6 h, dose level Low): 77.6 mg/dL
- TP (10 mg/kg, 6 h, dose level Low): 5.5 g/dL
- gamma-GTP (10 mg/kg, 6 h, dose level Low): 0.6 IU/L
- TERMINAL_BW (10 mg/kg, 9 h, dose level Low): 215.9 g
- APTT (10 mg/kg, 9 h, dose level Low): 18.5 s
- Bas (10 mg/kg, 9 h, dose level Low): 0%
- Eos (10 mg/kg, 9 h, dose level Low): 1%
- Fbg (10 mg/kg, 9 h, dose level Low): 226.2 mg/dL
- Hb (10 mg/kg, 9 h, dose level Low): 13.3 g/dL
- Ht (10 mg/kg, 9 h, dose level Low): 37.5%
- Lym (10 mg/kg, 9 h, dose level Low): 79.6%
- MCH (10 mg/kg, 9 h, dose level Low): 21.9 pg
- MCHC (10 mg/kg, 9 h, dose level Low): 35.5%
- MCV (10 mg/kg, 9 h, dose level Low): 61.8 fL
- Mono (10 mg/kg, 9 h, dose level Low): 2.6%
- Neu (10 mg/kg, 9 h, dose level Low): 15.8%
- PT (10 mg/kg, 9 h, dose level Low): 12.7 s
- Plat (10 mg/kg, 9 h, dose level Low): 112.8 x10_4/uL
- RBC (10 mg/kg, 9 h, dose level Low): 607 x10_4/ul
- Ret (10 mg/kg, 9 h, dose level Low): 7.3%
- WBC (10 mg/kg, 9 h, dose level Low): 86.5 x10_2/uL
- KIDNEY_L (10 mg/kg, 9 h, dose level Low): 1 g
- KIDNEY_R (10 mg/kg, 9 h, dose level Low): 1 g
- KIDNEY_TOTAL (10 mg/kg, 9 h, dose level Low): 2 g
- LIVER (10 mg/kg, 9 h, dose level Low): 9.4 g
- A/G (10 mg/kg, 9 h, dose level Low): 1.6
- ALP (10 mg/kg, 9 h, dose level Low): 712.8 IU/L
- ALT (10 mg/kg, 9 h, dose level Low): 32.2 IU/L
- AST (10 mg/kg, 9 h, dose level Low): 56.2 IU/L
- BUN (10 mg/kg, 9 h, dose level Low): 10.2 mg/dL
- CRE (10 mg/kg, 9 h, dose level Low): 0.3 mg/dL
- Ca (10 mg/kg, 9 h, dose level Low): 10.4 mg/dL
- Cl (10 mg/kg, 9 h, dose level Low): 103 meq/L
- DBIL (10 mg/kg, 9 h, dose level Low): 0.068 mg/dL
- GLC (10 mg/kg, 9 h, dose level Low): 197.2 mg/dL
- IP (10 mg/kg, 9 h, dose level Low): 9.4 mg/dL
- K (10 mg/kg, 9 h, dose level Low): 3.8 meq/L
- LDH (10 mg/kg, 9 h, dose level Low): 205.2 IU/L
- Na (10 mg/kg, 9 h, dose level Low): 140.6 meq/L
- PL (10 mg/kg, 9 h, dose level Low): 140 mg/dL
- RALB (10 mg/kg, 9 h, dose level Low): 3.4 g/dL
- TBIL (10 mg/kg, 9 h, dose level Low): 0.1 mg/dL
- TC (10 mg/kg, 9 h, dose level Low): 79.8 mg/dL
- TG (10 mg/kg, 9 h, dose level Low): 51.2 mg/dL
- TP (10 mg/kg, 9 h, dose level Low): 5.5 g/dL
- gamma-GTP (10 mg/kg, 9 h, dose level Low): 0.6 IU/L
- TERMINAL_BW (10 mg/kg, 24 h, dose level Low): 233.4 g
- APTT (10 mg/kg, 24 h, dose level Low): 18.6 s
- Bas (10 mg/kg, 24 h, dose level Low): 0%
